In the CheMixHub ionic liquid set:

Assay: xn = mol fraction of the nth substance listed
Conditions: 100 kPa

C[N+](C)(C)Cc1ccccc1.[Cl-] + O=C([O-])c1ccccc1.[Na+] + O
viscosity [mPa·s]
Conditions | 298.15 K | 303.15 K | 308.15 K | 313.15 K | 318.15 K
x1 = 9.698e-05, x2 = 0.001545 | 0.924 | 0.835 | 0.753 | 0.654 | 0.566
x1 = 9.701e-05, x2 = 0.00127 | 0.919 | 0.829 | 0.748 | 0.65 | 0.562
x1 = 9.703e-05, x2 = 0.0009982 | 0.913 | 0.823 | 0.742 | 0.645 | 0.558
x1 = 9.706e-05, x2 = 0.0007245 | 0.906 | 0.817 | 0.737 | 0.64 | 0.552
x1 = 9.709e-05, x2 = 0.0004525 | 0.901 | 0.812 | 0.731 | 0.635 | 0.548
x1 = 9.711e-05, x2 = 0.0001803 | 0.896 | 0.807 | 0.726 | 0.629 | 0.544
x1 = 0.0002915, x2 = 0.001548 | 0.927 | 0.84 | 0.758 | 0.652 | 0.562
x1 = 0.0002916, x2 = 0.001 | 0.915 | 0.827 | 0.747 | 0.64 | 0.554
x1 = 0.0002916, x2 = 0.001272 | 0.92 | 0.833 | 0.752 | 0.647 | 0.559
x1 = 0.0002917, x2 = 0.0007258 | 0.909 | 0.821 | 0.74 | 0.637 | 0.55
x1 = 0.0002918, x2 = 0.0004533 | 0.902 | 0.816 | 0.735 | 0.631 | 0.544
x1 = 0.0002919, x2 = 0.0001807 | 0.898 | 0.812 | 0.731 | 0.626 | 0.54
x1 = 0.0004867, x2 = 0.001551 | 0.932 | 0.843 | 0.76 | 0.665 | 0.577
x1 = 0.0004868, x2 = 0.001275 | 0.926 | 0.837 | 0.754 | 0.66 | 0.573
x1 = 0.0004869, x2 = 0.001002 | 0.919 | 0.831 | 0.748 | 0.655 | 0.569
x1 = 0.0004871, x2 = 0.0007272 | 0.913 | 0.826 | 0.743 | 0.649 | 0.563
x1 = 0.0004872, x2 = 0.0004542 | 0.908 | 0.82 | 0.737 | 0.645 | 0.559
x1 = 0.0004873, x2 = 0.000181 | 0.903 | 0.815 | 0.733 | 0.64 | 0.555
